Reference: patent US11708562B2, “Differentiation of human embryonic stem cells” (Janssen Biotech, Inc., priority 2006, dated 2023)

Tested on: H9P83 cells on MATRIGEL and H9P44 cells on MEFs
Experiment: Microarray analysis of gene expression after definitive endoderm formation (Table IV)
Assay type: cell-based, human
Method: Controls for each group included cells plated on […]-coated dishes and cultured in MEF-conditioned medium or cells plated on MEFs and cultured in ES medium.
Sample preparation, hybridization, and image analysis were performed according to the Affymetrix Human Genome U133 Plus 2.0 Array. Following normalization and a log transformation, data analysis was performed using OmniViz® software (MA) and […] (VizXLabs, WA). The variability within each treatment and among the different treatments was compared using the Pearson correlation coefficient. […] Significant differences in gene expression between the samples were evaluated using analysis of variance and an F-test with adjusted P-value (Benjamini and Hochberg correction) of ≤0.05. Only genes with a present call were included in the analysis.

[1] = microarray, H9P44 on MEFs, DE stage, 5 days of treatment
[2] = microarray, H9P83 on Matrigel, DE stage, 5 days of treatment

## Activin A: a member of the TGFβ superfamily; growth factor (R&D Systems) used to differentiate human embryonic stem cells
H9P83 on Matrigel-DE stage, after 5 days of treatment, undifferentiated H9P83 on Matrigel 4.03
  SCG5 (NM_003020) gene expression: 2.53
H9P83 on Matrigel-DE stage, after 5 days of treatment, undifferentiated H9P83 on Matrigel 4.26
  C20orf118 (BF437747) gene expression: 1.99
H9P83 on Matrigel-DE stage, after 5 days of treatment, undifferentiated H9P83 on Matrigel 4.28
  C20orf118 (AV715309) gene expression: 1.89
H9P83 on Matrigel-DE stage, after 5 days of treatment, undifferentiated H9P83 on Matrigel 4.83
  LECT1 (NM_007015) gene expression: 2.27
H9P83 on Matrigel-DE stage, after 5 days of treatment, undifferentiated H9P83 on Matrigel −0.28
  SCNN1G (AI985987) gene expression: −0.99
H9P83 on Matrigel-DE stage, after 5 days of treatment, undifferentiated H9P83 on Matrigel −0.80
  PCDH8 (NM_002590) gene expression: −0.83
H9P83 on Matrigel-DE stage, after 5 days of treatment, undifferentiated H9P83 on Matrigel −0.90
  TMEM16A (NM_018043) gene expression: −1.93
H9P83 on Matrigel-DE stage, after 5 days of treatment, undifferentiated H9P83 on Matrigel −1.15
  ATP5S (BE968806) gene expression: −3.03
H9P83 on Matrigel-DE stage, after 5 days of treatment, undifferentiated H9P83 on Matrigel −1.16
  SDK2 (N23651) gene expression: −2.65
H9P83 on Matrigel-DE stage, after 5 days of treatment, undifferentiated H9P83 on Matrigel −1.37
  PAK7 (AB040812) gene expression: −3.89
H9P83 on Matrigel-DE stage, after 5 days of treatment, undifferentiated H9P83 on Matrigel −2.03
  IFIH1 (NM_022168) gene expression: −2.76
[1]
  gene expression ADAMTS5 (NM_007038), H9P44 on MEFs-DE stage: 1.11
  gene expression AF116676 (PRO1957 mRNA), H9P44 on MEFs-DE stage: 4.23
  gene expression AI016316 (ESTs), H9P44 on MEFs-DE stage: 0.25
  gene expression AI222435 (ESTs), H9P44 on MEFs-DE stage: −0.33
  gene expression AK057525 (cDNA FLJ32963), H9P44 on MEFs-DE stage: 4.80
  gene expression BE327172 (v-jun avian sarcoma virus 17 oncogene homolog), H9P44 on MEFs-DE stage: 3.57
  gene expression C9orf19 (AA284532), H9P44 on MEFs-DE stage: 4.93
  gene expression CD99 (U82164), H9P44 on MEFs-DE stage: 6.36
  gene expression CDKN1A (NM_000389), H9P44 on MEFs-DE stage: 4.16
  gene expression CNN1 (NM_001299), H9P44 on MEFs-DE stage: 5.14
  gene expression COL22A1 (AW241910), H9P44 on MEFs-DE stage: 1.90
  gene expression CREB5 (AI819043), H9P44 on MEFs-DE stage: 1.80
  gene expression CXCL1 (NM_001511), H9P44 on MEFs-DE stage: 2.39
  gene expression DNAJB2 (NM_006736), H9P44 on MEFs-DE stage: 3.75
  gene expression DNAJC15 (NM_013238), H9P44 on MEFs-DE stage: 5.58
  gene expression EDG3 (AA534817), H9P44 on MEFs-DE stage: 4.58
  gene expression EMP3 (NM_001425), H9P44 on MEFs-DE stage: 3.13
  gene expression FLNC (NM_001458), H9P44 on MEFs-DE stage: 3.39
  gene expression FN1 (AK026737), H9P44 on MEFs-DE stage: 7.39
  gene expression FN1 (BC005858), H9P44 on MEFs-DE stage: 7.37
  gene expression GADD45A (NM_001924), H9P44 on MEFs-DE stage: 5.38
  gene expression GNA14 (NM_004297), H9P44 on MEFs-DE stage: 2.95
  gene expression HIST1H2BK (BC000893), H9P44 on MEFs-DE stage: 4.81
  gene expression IGSF4 (NM_014333), H9P44 on MEFs-DE stage: 3.79
  gene expression JUN (BG491844), H9P44 on MEFs-DE stage: 5.91
  gene expression KLF6 (AB017493), H9P44 on MEFs-DE stage: 4.87
  gene expression MFAP5 (U37283), H9P44 on MEFs-DE stage: 1.36
  gene expression MYL4 (M36172), H9P44 on MEFs-DE stage: 4.11
  gene expression PALLD (AK025843), H9P44 on MEFs-DE stage: 3.29
  gene expression PDGFC (AB033831), H9P44 on MEFs-DE stage: 0.21
  gene expression PLK2 (NM_006622), H9P44 on MEFs-DE stage: 5.19
  gene expression ST3GAL1 (NM_003033), H9P44 on MEFs-DE stage: 2.74
  gene expression TRDN (AA192306), H9P44 on MEFs-DE stage: 0.57
  gene expression TTC29 (AF345910), H9P44 on MEFs-DE stage: 0.91
  gene expression X58851 (MLC1emb gene), H9P44 on MEFs-DE stage: 4.04
[2]
  gene expression ADAMTS5 (NM_007038), H9P83 on Matrigel-DE stage: 1.80
  gene expression AF116676 (PRO1957 mRNA), H9P83 on Matrigel-DE stage: 3.31
  gene expression AI016316 (ESTs), H9P83 on Matrigel-DE stage: 1.19
  gene expression AI222435 (ESTs), H9P83 on Matrigel-DE stage: −0.73
  gene expression AK057525 (cDNA FLJ32963), H9P83 on Matrigel-DE stage: 4.45
  gene expression BE327172 (v-jun avian sarcoma virus 17 oncogene homolog), H9P83 on Matrigel-DE stage: 2.94
  gene expression C9orf19 (AA284532), H9P83 on Matrigel-DE stage: 4.12
  gene expression CD99 (U82164), H9P83 on Matrigel-DE stage: 5.69
  gene expression CDKN1A (NM_000389), H9P83 on Matrigel-DE stage: 4.20
  gene expression CNN1 (NM_001299), H9P83 on Matrigel-DE stage: 5.75
  gene expression COL22A1 (AW241910), H9P83 on Matrigel-DE stage: 1.15
  gene expression CREB5 (AI819043), H9P83 on Matrigel-DE stage: 2.63
  gene expression CXCL1 (NM_001511), H9P83 on Matrigel-DE stage: 2.95
  gene expression DNAJB2 (NM_006736), H9P83 on Matrigel-DE stage: 3.46
  gene expression DNAJC15 (NM_013238), H9P83 on Matrigel-DE stage: 3.79
  gene expression EDG3 (AA534817), H9P83 on Matrigel-DE stage: 3.28
  gene expression EMP3 (NM_001425), H9P83 on Matrigel-DE stage: 3.90
  gene expression FLNC (NM_001458), H9P83 on Matrigel-DE stage: 4.17
  gene expression FN1 (AK026737), H9P83 on Matrigel-DE stage: 6.85
  gene expression FN1 (BC005858), H9P83 on Matrigel-DE stage: 6.86
  gene expression GADD45A (NM_001924), H9P83 on Matrigel-DE stage: 5.04
  gene expression GNA14 (NM_004297), H9P83 on Matrigel-DE stage: 4.52
  gene expression HIST1H2BK (BC000893), H9P83 on Matrigel-DE stage: 3.99
  gene expression IGSF4 (NM_014333), H9P83 on Matrigel-DE stage: 4.12
  gene expression JUN (BG491844), H9P83 on Matrigel-DE stage: 5.45
  gene expression KLF6 (AB017493), H9P83 on Matrigel-DE stage: 4.02
  gene expression MFAP5 (U37283), H9P83 on Matrigel-DE stage: 1.87
  gene expression MYL4 (M36172), H9P83 on Matrigel-DE stage: 3.30
  gene expression PALLD (AK025843), H9P83 on Matrigel-DE stage: 3.38
  gene expression PDGFC (AB033831), H9P83 on Matrigel-DE stage: 0.63
  gene expression PLK2 (NM_006622), H9P83 on Matrigel-DE stage: 5.88
  gene expression ST3GAL1 (NM_003033), H9P83 on Matrigel-DE stage: 1.68
  gene expression TRDN (AA192306), H9P83 on Matrigel-DE stage: 0.02
  gene expression TTC29 (AF345910), H9P83 on Matrigel-DE stage: 1.53
  gene expression X58851 (MLC1emb gene), H9P83 on Matrigel-DE stage: 2.75
